Legend:
Assay in all cases: KINOMEscan competition binding
Details in all cases: compound 10.0 µM
MAPK6 (human) = MAPK6 (human) (UniProt Q16659)
ACVR2B (human) = ACVR2B (human) (UniProt Q13705)
MAPK12 (human) = MAPK12 (human) (UniProt P53778)
PDPK1 (human) = PDPK1 (human) (UniProt O15530)
MAP2K2 (human) = MAP2K2 (human) (UniProt P36507)
CHUK (human) = CHUK (human) (UniProt O15111)
[1] = system: PIK3CA (human), P42336 [M1043I]
MAP3K3 (human) = MAP3K3 (human) (UniProt Q99759)
MARK3 (human) = MARK3 (human) (UniProt P27448)
PDGFRB (human) = PDGFRB (human) (UniProt P09619)
[2] = system: KIT (human), P10721 [D816H]
CDKL3 (human) = CDKL3 (human) (UniProt Q8IVW4)
MERTK (human) = MERTK (human) (UniProt Q12866)
TEK (human) = TEK (human) (UniProt Q02763)
ROCK2 (human) = ROCK2 (human) (UniProt O75116)
CSNK1D (human) = CSNK1D (human) (UniProt P48730)
ACVR1 (human) = ACVR1 (human) (UniProt Q04771)
FGFR2 (human) = FGFR2 (human) (UniProt P21802)
NEK6 (human) = NEK6 (human) (UniProt Q9HC98)
PRKCH (human) = PRKCH (human) (UniProt P24723)
[3] = system: FGFR3 (human), P22607 [G697C]
SBK1 (human) = SBK1 (human) (UniProt Q52WX2)
MAPK1 (human) = MAPK1 (human) (UniProt P28482)
ITK (human) = ITK (human) (UniProt Q08881)
PHKG2 (human) = PHKG2 (human) (UniProt P15735)
SYK (human) = SYK (human) (UniProt P43405)
ERBB3 (human) = ERBB3 (human) (UniProt P21860)
MYLK (human) = MYLK (human) (UniProt Q15746)
MAP3K15 (human) = MAP3K15 (human) (UniProt Q6ZN16)
CAMK2A (human) = CAMK2A (human) (UniProt Q9UQM7)
RPS6KA4 KD1 (human) = RPS6KA4 KD1 (human) (UniProt O75676)
WEE1 (human) = WEE1 (human) (UniProt P30291)
STK35 (human) = STK35 (human) (UniProt Q8TDR2)
PRKG1 (human) = PRKG1 (human) (UniProt Q13976)
NLK (human) = NLK (human) (UniProt Q9UBE8)
CASK (human) = CASK (human) (UniProt O14936)
CDKL5 (human) = CDKL5 (human) (UniProt O76039)
[4] = molecular target: JAK3 JH1 catalytic (human) (UniProt P52333)
CPK1 (P.falciparum) = system: CPK1 (P.falciparum)
NIM1 (human) = NIM1 (human) (UniProt Q8IY84)

Sequence of ITK (human) (Q08881 whole entry, looked up): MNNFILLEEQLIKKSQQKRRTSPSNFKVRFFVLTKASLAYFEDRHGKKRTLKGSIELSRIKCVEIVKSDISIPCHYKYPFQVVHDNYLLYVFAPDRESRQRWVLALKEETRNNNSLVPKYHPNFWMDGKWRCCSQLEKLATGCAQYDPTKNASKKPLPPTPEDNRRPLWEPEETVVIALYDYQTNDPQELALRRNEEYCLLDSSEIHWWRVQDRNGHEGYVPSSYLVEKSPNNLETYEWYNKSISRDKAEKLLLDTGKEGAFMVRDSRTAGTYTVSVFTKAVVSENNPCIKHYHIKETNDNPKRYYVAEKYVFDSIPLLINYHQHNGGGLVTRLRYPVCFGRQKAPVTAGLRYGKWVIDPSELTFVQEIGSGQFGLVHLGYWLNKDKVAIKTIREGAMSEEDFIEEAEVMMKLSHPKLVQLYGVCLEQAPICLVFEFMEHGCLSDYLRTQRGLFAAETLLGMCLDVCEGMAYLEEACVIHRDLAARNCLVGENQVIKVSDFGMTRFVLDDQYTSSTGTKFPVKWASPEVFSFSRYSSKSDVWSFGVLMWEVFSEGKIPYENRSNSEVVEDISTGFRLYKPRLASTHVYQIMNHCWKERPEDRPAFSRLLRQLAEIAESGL
Sequence of STK35 (human) (Q8TDR2 whole entry, looked up): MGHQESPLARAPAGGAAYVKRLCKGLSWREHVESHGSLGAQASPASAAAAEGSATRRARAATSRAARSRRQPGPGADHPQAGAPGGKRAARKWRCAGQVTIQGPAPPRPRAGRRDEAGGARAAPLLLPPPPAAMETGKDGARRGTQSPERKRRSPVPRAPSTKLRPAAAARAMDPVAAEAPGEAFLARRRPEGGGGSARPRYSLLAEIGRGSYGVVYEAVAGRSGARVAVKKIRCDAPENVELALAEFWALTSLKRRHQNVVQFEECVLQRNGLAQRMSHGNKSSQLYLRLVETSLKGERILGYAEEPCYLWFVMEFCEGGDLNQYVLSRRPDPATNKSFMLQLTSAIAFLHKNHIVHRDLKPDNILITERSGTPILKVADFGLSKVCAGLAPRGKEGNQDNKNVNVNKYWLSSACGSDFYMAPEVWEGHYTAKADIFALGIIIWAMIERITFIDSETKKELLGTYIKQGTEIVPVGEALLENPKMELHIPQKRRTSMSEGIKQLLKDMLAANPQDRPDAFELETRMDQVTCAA
Sequence of JAK3 JH1 catalytic (human) (P52333 whole entry, looked up): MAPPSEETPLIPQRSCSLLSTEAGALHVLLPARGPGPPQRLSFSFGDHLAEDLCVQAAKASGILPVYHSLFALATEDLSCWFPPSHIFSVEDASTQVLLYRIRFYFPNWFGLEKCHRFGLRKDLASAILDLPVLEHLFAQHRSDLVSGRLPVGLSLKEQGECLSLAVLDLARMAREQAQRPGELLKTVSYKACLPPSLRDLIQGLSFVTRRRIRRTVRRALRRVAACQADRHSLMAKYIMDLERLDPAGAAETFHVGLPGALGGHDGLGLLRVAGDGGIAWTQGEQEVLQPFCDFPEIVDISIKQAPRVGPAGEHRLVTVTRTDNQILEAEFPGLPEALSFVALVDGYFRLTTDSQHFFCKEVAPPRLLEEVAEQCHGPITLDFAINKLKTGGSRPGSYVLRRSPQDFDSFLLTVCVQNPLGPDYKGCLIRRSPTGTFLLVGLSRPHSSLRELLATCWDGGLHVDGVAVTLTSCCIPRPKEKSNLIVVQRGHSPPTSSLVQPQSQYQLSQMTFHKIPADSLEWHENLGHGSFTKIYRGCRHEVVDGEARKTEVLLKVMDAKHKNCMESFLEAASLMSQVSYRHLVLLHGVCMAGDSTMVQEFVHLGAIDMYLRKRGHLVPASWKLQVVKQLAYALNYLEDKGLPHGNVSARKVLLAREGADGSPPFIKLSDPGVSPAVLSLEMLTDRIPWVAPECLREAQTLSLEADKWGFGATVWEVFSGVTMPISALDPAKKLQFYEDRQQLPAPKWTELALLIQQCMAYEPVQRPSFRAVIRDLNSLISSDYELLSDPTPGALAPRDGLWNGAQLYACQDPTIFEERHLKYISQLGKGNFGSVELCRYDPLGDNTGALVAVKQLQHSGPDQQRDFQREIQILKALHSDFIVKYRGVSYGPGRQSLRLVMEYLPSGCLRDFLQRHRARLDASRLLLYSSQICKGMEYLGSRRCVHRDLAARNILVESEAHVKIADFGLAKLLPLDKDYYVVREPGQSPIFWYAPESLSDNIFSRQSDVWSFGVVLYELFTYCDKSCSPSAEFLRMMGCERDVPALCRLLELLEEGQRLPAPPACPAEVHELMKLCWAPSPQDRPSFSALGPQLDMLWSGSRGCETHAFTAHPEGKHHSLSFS
Sequence of CAMK2A (human) (Q9UQM7 whole entry, looked up): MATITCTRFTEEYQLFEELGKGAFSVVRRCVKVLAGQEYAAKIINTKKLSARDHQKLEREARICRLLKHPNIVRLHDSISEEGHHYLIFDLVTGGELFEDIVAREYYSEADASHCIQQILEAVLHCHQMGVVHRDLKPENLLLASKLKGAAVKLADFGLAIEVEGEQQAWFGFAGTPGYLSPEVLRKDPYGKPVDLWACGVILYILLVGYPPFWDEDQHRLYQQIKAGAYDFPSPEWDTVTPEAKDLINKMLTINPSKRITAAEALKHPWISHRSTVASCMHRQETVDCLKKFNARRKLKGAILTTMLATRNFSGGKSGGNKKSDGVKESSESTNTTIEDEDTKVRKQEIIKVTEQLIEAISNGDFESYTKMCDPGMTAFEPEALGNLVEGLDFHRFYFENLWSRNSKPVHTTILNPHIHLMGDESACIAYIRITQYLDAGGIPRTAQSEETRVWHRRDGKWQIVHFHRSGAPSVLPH
Sequence of PDGFRB (human) (P09619 whole entry, looked up): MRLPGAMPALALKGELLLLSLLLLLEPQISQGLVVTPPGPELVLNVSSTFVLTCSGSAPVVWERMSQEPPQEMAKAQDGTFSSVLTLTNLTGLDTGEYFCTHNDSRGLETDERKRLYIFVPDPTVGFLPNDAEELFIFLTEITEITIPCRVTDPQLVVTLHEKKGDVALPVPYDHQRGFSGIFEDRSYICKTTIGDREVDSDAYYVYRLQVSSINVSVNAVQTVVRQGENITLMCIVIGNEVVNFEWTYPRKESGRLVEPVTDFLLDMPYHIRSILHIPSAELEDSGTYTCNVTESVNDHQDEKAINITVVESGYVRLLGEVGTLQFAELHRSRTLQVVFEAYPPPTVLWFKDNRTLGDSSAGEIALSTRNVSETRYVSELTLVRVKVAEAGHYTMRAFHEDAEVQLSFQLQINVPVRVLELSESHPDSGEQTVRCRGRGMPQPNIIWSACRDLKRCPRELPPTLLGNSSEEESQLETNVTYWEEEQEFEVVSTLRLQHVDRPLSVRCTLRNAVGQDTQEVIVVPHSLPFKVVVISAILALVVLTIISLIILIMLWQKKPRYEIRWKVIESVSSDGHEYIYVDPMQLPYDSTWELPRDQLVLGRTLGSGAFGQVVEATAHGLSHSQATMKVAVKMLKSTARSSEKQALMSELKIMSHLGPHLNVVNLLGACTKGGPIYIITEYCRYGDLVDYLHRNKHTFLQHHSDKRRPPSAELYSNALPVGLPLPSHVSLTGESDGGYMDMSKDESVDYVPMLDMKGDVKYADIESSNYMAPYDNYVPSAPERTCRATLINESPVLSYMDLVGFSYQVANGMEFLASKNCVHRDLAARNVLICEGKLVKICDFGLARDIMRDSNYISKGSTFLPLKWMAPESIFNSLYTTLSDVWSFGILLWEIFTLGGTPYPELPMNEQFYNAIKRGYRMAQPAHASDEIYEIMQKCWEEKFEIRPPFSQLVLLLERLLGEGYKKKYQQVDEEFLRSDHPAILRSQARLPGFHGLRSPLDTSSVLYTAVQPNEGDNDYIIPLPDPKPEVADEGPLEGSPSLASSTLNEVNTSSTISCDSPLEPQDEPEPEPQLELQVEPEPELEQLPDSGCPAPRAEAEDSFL
Sequence of CASK (human) (O14936 whole entry, looked up): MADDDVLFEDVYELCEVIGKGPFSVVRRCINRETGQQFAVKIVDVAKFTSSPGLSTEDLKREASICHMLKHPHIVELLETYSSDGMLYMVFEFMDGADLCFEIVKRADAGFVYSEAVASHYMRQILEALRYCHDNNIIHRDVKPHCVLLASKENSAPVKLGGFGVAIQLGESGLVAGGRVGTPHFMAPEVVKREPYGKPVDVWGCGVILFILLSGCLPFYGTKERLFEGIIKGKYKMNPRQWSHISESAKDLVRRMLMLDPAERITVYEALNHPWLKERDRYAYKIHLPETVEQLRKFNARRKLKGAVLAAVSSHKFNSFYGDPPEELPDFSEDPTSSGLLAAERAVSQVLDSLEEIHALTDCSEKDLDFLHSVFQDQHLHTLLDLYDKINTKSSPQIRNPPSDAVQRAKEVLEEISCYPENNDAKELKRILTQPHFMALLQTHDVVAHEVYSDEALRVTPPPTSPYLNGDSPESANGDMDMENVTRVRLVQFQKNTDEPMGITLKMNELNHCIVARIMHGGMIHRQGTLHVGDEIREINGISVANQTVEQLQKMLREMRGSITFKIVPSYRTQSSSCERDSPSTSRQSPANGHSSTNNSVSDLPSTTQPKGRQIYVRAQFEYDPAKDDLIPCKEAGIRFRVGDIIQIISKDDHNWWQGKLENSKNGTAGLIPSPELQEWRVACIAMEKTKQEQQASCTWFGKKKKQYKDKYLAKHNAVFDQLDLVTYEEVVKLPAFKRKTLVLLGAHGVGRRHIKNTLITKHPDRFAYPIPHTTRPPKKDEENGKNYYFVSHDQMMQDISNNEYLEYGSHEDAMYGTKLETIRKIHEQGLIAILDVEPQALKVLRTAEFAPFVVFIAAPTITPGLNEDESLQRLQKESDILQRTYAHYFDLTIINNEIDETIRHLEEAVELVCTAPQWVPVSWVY

Structure (SMILES): CCCS(=O)(=O)Nc1ccc(F)c(C(=O)c2c[nH]c3ncc(Cl)cc23)c1F
- kinase still bound, per cent of control (MAPK6 (human)): 100%
- kinase still bound, per cent of control (ACVR2B (human)): 28%
- kinase still bound, per cent of control (MAPK12 (human)): 100%
- kinase still bound, per cent of control (PDPK1 (human)): 85%
- kinase still bound, per cent of control (MAP2K2 (human)): 1%
- kinase still bound, per cent of control (CHUK (human)): 89%
- kinase still bound, per cent of control [1]: 76%
- kinase still bound, per cent of control (MAP3K3 (human)): 61%
- kinase still bound, per cent of control (MARK3 (human)): 74%
- kinase still bound, per cent of control (PDGFRB (human)): 0%
- kinase still bound, per cent of control [2]: 93%
- kinase still bound, per cent of control (CDKL3 (human)): 100%
- kinase still bound, per cent of control (MERTK (human)): 94%
- kinase still bound, per cent of control (TEK (human)): 100%
- kinase still bound, per cent of control (ROCK2 (human)): 81%
- kinase still bound, per cent of control (CSNK1D (human)): 91%
- kinase still bound, per cent of control (ACVR1 (human)): 100%
- kinase still bound, per cent of control (FGFR2 (human)): 59%
- kinase still bound, per cent of control (NEK6 (human)): 91%
- kinase still bound, per cent of control (PRKCH (human)): 100%
- kinase still bound, per cent of control [3]: 100%
- kinase still bound, per cent of control (SBK1 (human)): 92%
- kinase still bound, per cent of control (MAPK1 (human)): 100%
- kinase still bound, per cent of control (ITK (human)): 99%
- kinase still bound, per cent of control (PHKG2 (human)): 52%
- kinase still bound, per cent of control (SYK (human)): 100%
- kinase still bound, per cent of control (ERBB3 (human)): 28%
- kinase still bound, per cent of control (MYLK (human)): 79%
- kinase still bound, per cent of control (MAP3K15 (human)): 74%
- kinase still bound, per cent of control (CAMK2A (human)): 84%
- kinase still bound, per cent of control (RPS6KA4 KD1 (human)): 85%
- kinase still bound, per cent of control (WEE1 (human)): 100%
- kinase still bound, per cent of control (STK35 (human)): 100%
- kinase still bound, per cent of control (PRKG1 (human)): 100%
- kinase still bound, per cent of control (NLK (human)): 100%
- kinase still bound, per cent of control (CASK (human)): 51%
- kinase still bound, per cent of control (CDKL5 (human)): 92%
- kinase still bound, per cent of control [4]: 24%
- kinase still bound, per cent of control (CPK1 (P.falciparum)): 0%
- kinase still bound, per cent of control (NIM1 (human)): 92%

Structure (SMILES): CCc1nc(-c2cccc(C)c2)c(-c2ccnc(NC(=O)c3ccccc3)c2)s1
- kinase still bound, per cent of control (MAPK6 (human)): 85%
- kinase still bound, per cent of control (ACVR2B (human)): 17%
- kinase still bound, per cent of control (MAPK12 (human)): 100%
- kinase still bound, per cent of control (PDPK1 (human)): 89%
- kinase still bound, per cent of control (MAP2K2 (human)): 90%
- kinase still bound, per cent of control (CHUK (human)): 100%
- kinase still bound, per cent of control [1]: 95%
- kinase still bound, per cent of control (MAP3K3 (human)): 92%
- kinase still bound, per cent of control (MARK3 (human)): 72%
- kinase still bound, per cent of control (PDGFRB (human)): 34%
- kinase still bound, per cent of control [2]: 57%
- kinase still bound, per cent of control (CDKL3 (human)): 81%
- kinase still bound, per cent of control (MERTK (human)): 100%
- kinase still bound, per cent of control (TEK (human)): 94%
- kinase still bound, per cent of control (ROCK2 (human)): 100%
- kinase still bound, per cent of control (CSNK1D (human)): 2%
- kinase still bound, per cent of control (ACVR1 (human)): 9.6%
- kinase still bound, per cent of control (FGFR2 (human)): 71%
- kinase still bound, per cent of control (NEK6 (human)): 100%
- kinase still bound, per cent of control (PRKCH (human)): 88%
- kinase still bound, per cent of control [3]: 93%
- kinase still bound, per cent of control (SBK1 (human)): 100%
- kinase still bound, per cent of control (MAPK1 (human)): 96%
- kinase still bound, per cent of control (ITK (human)): 100%
- kinase still bound, per cent of control (PHKG2 (human)): 76%
- kinase still bound, per cent of control (SYK (human)): 88%
- kinase still bound, per cent of control (ERBB3 (human)): 49%
- kinase still bound, per cent of control (MYLK (human)): 84%
- kinase still bound, per cent of control (MAP3K15 (human)): 100%
- kinase still bound, per cent of control (CAMK2A (human)): 89%
- kinase still bound, per cent of control (RPS6KA4 KD1 (human)): 100%
- kinase still bound, per cent of control (WEE1 (human)): 100%
- kinase still bound, per cent of control (STK35 (human)): 76%
- kinase still bound, per cent of control (PRKG1 (human)): 100%
- kinase still bound, per cent of control (NLK (human)): 4%
- kinase still bound, per cent of control (CASK (human)): 100%
- kinase still bound, per cent of control (CDKL5 (human)): 100%
- kinase still bound, per cent of control [4]: 80%
- kinase still bound, per cent of control (CPK1 (P.falciparum)): 22%
- kinase still bound, per cent of control (NIM1 (human)): 100%

Structure (SMILES): N#C/C(=C1/Nc2ccccc2S1)c1ccnc(NCCc2cccnc2)n1
- kinase still bound, per cent of control (MAPK6 (human)): 26%
- kinase still bound, per cent of control (ACVR2B (human)): 98%
- kinase still bound, per cent of control (MAPK12 (human)): 13%
- kinase still bound, per cent of control (PDPK1 (human)): 100%
- kinase still bound, per cent of control (MAP2K2 (human)): 17%
- kinase still bound, per cent of control (CHUK (human)): 42%
- kinase still bound, per cent of control [1]: 84%
- kinase still bound, per cent of control (MAP3K3 (human)): 74%
- kinase still bound, per cent of control (MARK3 (human)): 100%
- kinase still bound, per cent of control (PDGFRB (human)): 64%
- kinase still bound, per cent of control [2]: 72%
- kinase still bound, per cent of control (CDKL3 (human)): 100%
- kinase still bound, per cent of control (MERTK (human)): 100%
- kinase still bound, per cent of control (TEK (human)): 100%
- kinase still bound, per cent of control (ROCK2 (human)): 23%
- kinase still bound, per cent of control (CSNK1D (human)): 42%
- kinase still bound, per cent of control (ACVR1 (human)): 86%
- kinase still bound, per cent of control (FGFR2 (human)): 100%
- kinase still bound, per cent of control (NEK6 (human)): 100%
- kinase still bound, per cent of control (PRKCH (human)): 100%
- kinase still bound, per cent of control [3]: 100%
- kinase still bound, per cent of control (SBK1 (human)): 94%
- kinase still bound, per cent of control (MAPK1 (human)): 84%
- kinase still bound, per cent of control (ITK (human)): 100%
- kinase still bound, per cent of control (PHKG2 (human)): 78%
- kinase still bound, per cent of control (SYK (human)): 100%
- kinase still bound, per cent of control (ERBB3 (human)): 36%
- kinase still bound, per cent of control (MYLK (human)): 66%
- kinase still bound, per cent of control (MAP3K15 (human)): 100%
- kinase still bound, per cent of control (CAMK2A (human)): 46%
- kinase still bound, per cent of control (RPS6KA4 KD1 (human)): 100%
- kinase still bound, per cent of control (WEE1 (human)): 100%
- kinase still bound, per cent of control (STK35 (human)): 85%
- kinase still bound, per cent of control (PRKG1 (human)): 100%
- kinase still bound, per cent of control (NLK (human)): 100%
- kinase still bound, per cent of control (CASK (human)): 100%
- kinase still bound, per cent of control (CDKL5 (human)): 82%
- kinase still bound, per cent of control [4]: 10%
- kinase still bound, per cent of control (CPK1 (P.falciparum)): 4.2%
- kinase still bound, per cent of control (NIM1 (human)): 100%

— the kinase profiling compilation of Christmann-Franck et al. (2016)
